Data: patent US20240166610A1, “SUBSTITUTED PYRIDAZINE PHENOL DERIVATIVES” (MEDSHINE DISCOVERY INC., priority 2021, published 2024)
Counter-ions that a name gives are not always drawn. One block for each compound: values may come before it.

Tests used:
NLRP3 = molecular target: T1, NLRP3 (Homo sapiens, UniProt Q96P20); assay: Detecting IC50 of NLRP3 inhibitor by using THP-1 cells (IL-1β secretion, CBA); type: cell-based; conditions: PMA/LPS/ATP, IL-1β in supernatant
T1 construct: This experiment utilized the human-derived monocyte cell line THP1; endogenous in cells; host or cells: THP-1 (human monocyte line, PMA-differentiated into macrophages)
Text: 1. Experimental principle: This experiment utilized the human-derived monocyte cell line THP1 to investigate the inhibitory activity (IC50) of NLRP3 inhibitor on cellular IL-1β secretion. PMA (12-O-tetradecanoylphorbol-13-acetate) was used to differentiate the monocyte cell line THP1 into mature macrophages, which were then stimulated using LPS (lipopolysaccharide), an agonist of the Toll-like receptor TLR4, to activate the transcriptional activity of the inflammasome NLRP3 and the expression of pro-IL-1β, a precursor of IL-1β. At this time, the inhibitor of NLRP3 was added, and then ATP (adenosine triphosphate) was added to further mature and activate NLRP3, and activate downstream caspase-1. Activated caspase-1 may enzymatically process pro-IL-1β into mature IL-1β that can be secreted.
(1) The density of THP1 cells was adjusted to 5×10^5 cells/mL, then PMA was added, and the final concentration was adjusted to 100 ng/mL. The cells were inoculated 200 μL/well into a 96-well flat-bottom plate, stimulated overnight (<16 hours if possible) at 37° C. and 5% CO2.
(2) The supernatant was discarded the next day, and then the cells were carefully washed twice with Dulbecco's phosphate-buffered saline (200 μL/time).
(3) The cells were stimulated with LPS at a final concentration of 100 ng/mL, added to a 96-well plate (200 μL/well), and cultured at 37° C. and 5% CO2 for 3 hours.
The cells were incubated for 1 hour in a 37° C., 5% CO2 incubator.
(5) ATP was added to each well with a final concentration of 5 mM, and cultured overnight (>18 hours) at 37° C. and 5% CO2.
(6) On the third day, 5 μL of the supernatant was taken, diluted 10-fold, and the content of IL-1β in the supernatant was detected by cytometric bead array (CBA).

[1] = In vivo pharmacokinetic evaluation in CD-1 mice; conditions: male, mouse, plasma; for half-life: IV, read-out: Half-life T1/2 (IV) (converted); for clearance: read-out: Clearance rate CL; for Vd: read-out: Tissue distribution Vdss; for AUC(0-t): PO, read-out: Area under drug-time curve AUC0-last PO; for bioavailability: read-out: Bioavailability F; for Cmax: read-out: Peak concentration Cmax
Experimental: Experimental Example 2: In Vivo Pharmacokinetic Evaluation of Compounds in CD-1 Mice
Experimental purpose: To test the in vivo pharmacokinetics of the compounds in CD-1 mice
CD-1 mice (male, 7 to 9 weeks old)
The rodent pharmacokinetic characteristics after intravenous injection and oral administration of the compounds were tested using a standard protocol. The candidate compound was prepared as a clear solution during the experiment and given to mice for single intravenous injection and oral administration. The vehicle for intravenous injection and oral administration was a mixed vehicle composed of 5% dimethyl sulfoxide and 95% 5% solutol. Four male CD-1 mice were used in this project. Two mice were administered intravenously (IV), and plasma samples were collected at 0 hours (before administration) and 0.0833, 0.25, 0.5, 1, 2, 4, 8, and 24 hours after administration. The other two mice were administered orally by gavage (PO), and plasma samples were collected at 0 hours (before administration) and 0.25, 0.5, 1, 2, 4, 8, and 24 hours after administration. The plasma concentration was quantitatively analyzed by LC-MS/MS analysis method, and the pharmacokinetic parameters were calculated, such as peak concentration (Cmax), clearance rate (CL), half-life (T1/2), […] (Vdss), area under drug-time curve (AUC0-last), bioavailability (F).

[2] = molecular target: T2, hERG potassium ion channel (Homo sapiens, UniProt Q12809); assay: Inhibition test on hERG potassium ion channel (automated patch clamp, CHO-hERG cells); type: cell-based; conditions: Qpatch, highest test concentration 40.00 μM
T2 construct: expressed in transfected cells; host or cells: CHO (CHO-hERG cell line)
Experimental: Experimental Example 4: Inhibition Test of Compounds on hERG Potassium Ion Channel
Experimental purpose: To detect the effect of the compounds to be tested on the hERG potassium channel by an automated patch clamp method.
1.1 CHO-hERG cells were cultured in a 175 cm^2 culture flask. When the cell density reached 60 to 80%, the culture medium was removed, and the cells were washed once with 7 mL of PBS (phosphate buffered saline), and then digested with 3 mL of digestion solution.
1.2 After the digestion was completed, 7 mL of culture medium was added to neutralize, then the mixture was centrifuged, and the supernatant was aspirated, and then 5 mL of culture medium was added to re-suspend, ensuring 2 to 5×10^6/mL of cell density.
The process of single cell high impedance sealing and whole cell mode formation were all automatically completed by Qpatch instrument, after obtaining the whole cell recording mode, the cells were clamped at −80 mV, before giving a 5-second +40 mV depolarization stimulus, a 50 millisecond −50 mV prevoltage was given first, and then repolarized to −50 mV for 5 seconds, then returned to −80 mV This voltage stimulation was applied every 15 seconds and after recording for 2 minutes, extracellular fluid was recordings for 5 minutes, and then the administration process was started. The compound concentration was given from the lowest test concentration, each test concentration was given for 2.5 minutes, and 3 μM of Cisapride as the positive control compound was given after all concentrations were continuously given. At least 3 cells (n≥3) were tested at each concentration.
4.1 The mother solution of the compound was diluted with DMSO, and 10 μL of mother solution of the compound was added to 20 μL of DMSO solution, and was 3-fold diluted continuously to 6 DMSO concentrations.
4.2 4 μL of compounds with 6 DMSO concentrations were added to 396 μL of extracellular fluid, 100-fold diluted to 6 intermediate concentrations, and then 80 μL of the compounds with 6 intermediate concentrations were added to 320 μL of extracellular fluid, 5-fold diluted to the final concentration to be tested.
4.3 The highest test concentration was 40.00 μM, in a total of 6 concentrations of 40.00, 13.33, 4.44, 1.48, 0.49, and 0.16 μM respectively.
4.4 The content of DMSO in the final test concentration was not more than 0.2%, and this concentration of DMSO had no effect on hERG potassium channel.
4.5 The whole dilution process of compound preparation was completed by Bravo instrument.
The experimental data were analyzed by GraphPad Prism 5.0 software.

[3] = In vivo pharmacokinetic evaluation in SD rats; conditions: male, rat, plasma, dose IV/PO 1/2 mg/kg; for half-life / clearance / Vd: 1 mg/kg; for half-life: IV, read-out: Half-life T1/2 (IV) (converted); for clearance: read-out: Clearance rate CL; for Vd: read-out: Tissue distribution Vdss; for AUC(0-t): PO, read-out: Area under drug-time curve AUC0-last PO; for bioavailability: read-out: Bioavailability F; for Cmax: read-out: Peak concentration Cmax
Experimental: Experimental Example 3: In Vivo Pharmacokinetic Evaluation of Compounds in SD Rats
Experimental Purpose: To Test the In Vivo Pharmacokinetics of the Compounds in SD Rats
The rodent pharmacokinetic characteristics after intravenous injection and oral administration of the compounds were tested using a standard protocol. The candidate compound was prepared as a clear solution during the experiment and given to SD rats for single intravenous injection and oral administration. The vehicle for intravenous injection and oral administration was a mixed vehicle composed of 5% dimethyl sulfoxide and 95% 5% solutol. Four male SD rats were used in this project. Two SD rats were administered intravenously, and plasma samples were collected at 0.083, 0.25, 0.5, 1, 2, 4, 8, and 24 hours after administration. The other two SD rats were administered orally by gavage, and plasma samples were collected at 0.25, 0.5, 1, 2, 4, 8, and 24 hours after administration. The plasma concentration was quantitatively analyzed by LC-MS/MS analysis method, and the pharmacokinetic parameters were calculated, such as peak concentration (Cmaz), clearance rate (CL), half-life (T1/2), […] (Vdss), area under drug-time curve (AUC0-last), bioavailability (F).

T2 sequence (Q12809 whole entry): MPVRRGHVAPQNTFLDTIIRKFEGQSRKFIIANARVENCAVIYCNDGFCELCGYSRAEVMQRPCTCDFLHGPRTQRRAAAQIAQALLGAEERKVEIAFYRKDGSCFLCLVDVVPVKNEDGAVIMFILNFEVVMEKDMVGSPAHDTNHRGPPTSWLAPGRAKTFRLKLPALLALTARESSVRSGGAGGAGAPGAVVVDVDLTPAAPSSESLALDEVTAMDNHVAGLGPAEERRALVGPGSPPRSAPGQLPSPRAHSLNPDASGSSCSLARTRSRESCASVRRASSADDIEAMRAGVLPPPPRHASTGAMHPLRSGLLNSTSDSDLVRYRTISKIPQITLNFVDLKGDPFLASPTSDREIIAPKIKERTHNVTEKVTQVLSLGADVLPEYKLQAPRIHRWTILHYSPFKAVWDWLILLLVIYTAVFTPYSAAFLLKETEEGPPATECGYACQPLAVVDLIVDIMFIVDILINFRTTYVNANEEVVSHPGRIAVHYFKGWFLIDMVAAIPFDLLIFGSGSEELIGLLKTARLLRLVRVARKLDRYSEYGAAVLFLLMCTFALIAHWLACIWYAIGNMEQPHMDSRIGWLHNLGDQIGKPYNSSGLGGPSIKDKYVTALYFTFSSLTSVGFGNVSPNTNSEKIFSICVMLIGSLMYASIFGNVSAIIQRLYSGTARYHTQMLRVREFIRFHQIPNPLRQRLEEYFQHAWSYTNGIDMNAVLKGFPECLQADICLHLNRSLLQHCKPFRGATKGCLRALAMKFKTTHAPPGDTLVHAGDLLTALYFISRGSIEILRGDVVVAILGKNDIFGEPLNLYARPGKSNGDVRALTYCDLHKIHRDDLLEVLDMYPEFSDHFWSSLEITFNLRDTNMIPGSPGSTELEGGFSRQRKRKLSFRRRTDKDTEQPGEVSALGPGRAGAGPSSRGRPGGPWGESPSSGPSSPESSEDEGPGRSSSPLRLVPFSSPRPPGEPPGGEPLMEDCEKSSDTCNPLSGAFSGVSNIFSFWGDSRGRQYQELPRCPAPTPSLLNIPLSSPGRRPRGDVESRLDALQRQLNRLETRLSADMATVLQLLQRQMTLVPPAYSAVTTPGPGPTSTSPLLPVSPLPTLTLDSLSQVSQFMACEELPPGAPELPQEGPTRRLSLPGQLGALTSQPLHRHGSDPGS
T1 sequence (Q96P20 whole entry): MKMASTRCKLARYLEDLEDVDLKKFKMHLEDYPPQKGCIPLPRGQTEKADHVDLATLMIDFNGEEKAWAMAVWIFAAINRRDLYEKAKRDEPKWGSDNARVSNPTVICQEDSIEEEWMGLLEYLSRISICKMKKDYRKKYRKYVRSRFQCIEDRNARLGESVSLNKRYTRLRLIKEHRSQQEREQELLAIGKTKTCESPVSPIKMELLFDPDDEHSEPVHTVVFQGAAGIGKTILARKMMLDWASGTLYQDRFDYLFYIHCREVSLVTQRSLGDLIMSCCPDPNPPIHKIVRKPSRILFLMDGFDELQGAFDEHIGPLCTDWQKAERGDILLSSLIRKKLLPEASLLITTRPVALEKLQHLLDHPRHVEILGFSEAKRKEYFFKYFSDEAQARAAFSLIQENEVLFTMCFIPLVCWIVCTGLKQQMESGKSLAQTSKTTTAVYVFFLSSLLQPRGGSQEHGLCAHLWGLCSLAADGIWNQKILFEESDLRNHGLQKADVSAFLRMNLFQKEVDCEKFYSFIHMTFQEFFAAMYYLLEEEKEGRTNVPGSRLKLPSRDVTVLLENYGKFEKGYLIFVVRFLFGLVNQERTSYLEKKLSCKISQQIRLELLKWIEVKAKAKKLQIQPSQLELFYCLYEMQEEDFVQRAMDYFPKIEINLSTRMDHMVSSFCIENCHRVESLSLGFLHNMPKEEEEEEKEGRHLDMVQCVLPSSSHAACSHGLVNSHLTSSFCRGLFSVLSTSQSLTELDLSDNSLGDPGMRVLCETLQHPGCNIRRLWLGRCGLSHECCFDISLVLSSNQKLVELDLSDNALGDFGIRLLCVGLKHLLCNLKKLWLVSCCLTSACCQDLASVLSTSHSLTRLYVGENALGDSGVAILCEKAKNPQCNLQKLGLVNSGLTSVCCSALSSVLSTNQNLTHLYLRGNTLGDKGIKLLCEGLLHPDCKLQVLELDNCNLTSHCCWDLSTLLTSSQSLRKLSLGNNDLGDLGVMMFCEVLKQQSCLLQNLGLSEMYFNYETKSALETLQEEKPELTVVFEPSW

SMILES: Cc1cc(N[C@@H]2CCCN(CC#N)C2)nnc1-c1ccc(C2CC2)cc1O [Compound 23]
- IC50 (NLRP3): 4.7 nM
- half-life ([1]; 1 mg/kg, dose IV/PO 1/2 mg/kg): 1.24 h
- clearance ([1]; 1 mg/kg, dose IV/PO 1/2 mg/kg): 6.49 mL/min/kg
- Vd ([1]; 1 mg/kg, dose IV/PO 1/2 mg/kg): 0.618 L/kg
- AUC(0-t) ([1]; dose IV/PO 1/2 mg/kg): 10.4 µM·h
- bioavailability ([1]; dose IV/PO 1/2 mg/kg): 79.9%
- Cmax ([1]; dose IV/PO 1/2 mg/kg): 3.84 µM
- IC50 [2]: > 40000 nM

SMILES: Cc1cc(NC[C@@H](C)O)nnc1-c1ccc2sccc2c1O [Hydrochloride of compound 57]
- IC50 (NLRP3): 3.37 nM
- IC50 [2]: > 40000 nM

SMILES: Cc1cc(NC2CN(C)CC(F)(F)C2)nnc1-c1ccc2sccc2c1O (single isomer, unassigned) [Compound 70a]
- IC50 (NLRP3): 23.4 nM
- IC50 [2]: 34200 nM

SMILES: Cc1cc(N[C@@H]2CCCN(C)C2)nnc1-c1ccc2sccc2c1O [Hydrochloride of compound 20]
- IC50 (NLRP3): 0.08 nM
- half-life ([1]; 2 mg/kg, dose IV/PO 2/10 mg/kg): 3.26 h
- clearance ([1]; 2 mg/kg, dose IV/PO 2/10 mg/kg): 28.7 mL/min/kg
- Vd ([1]; 2 mg/kg, dose IV/PO 2/10 mg/kg): 7.03 L/kg
- AUC(0-t) ([1]; dose IV/PO 2/10 mg/kg): 16 µM·h
- bioavailability ([1]; dose IV/PO 2/10 mg/kg): 96.5%
- Cmax ([1]; dose IV/PO 2/10 mg/kg): 4.29 µM
- IC50 [2]: 10300 nM
- half-life [3]: 1.81 h
- clearance [3]: 48.5 mL/min/kg
- Vd [3]: 6.79 L/kg
- AUC(0-t) [3]: 0.926 µM·h
- bioavailability [3]: 49.7%
- Cmax [3]: 0.204 µM

SMILES: Cc1cc(N[C@H]2CN3CCC2CC3)nnc1-c1ccc2c(c1O)CCC2 [Hydrochloride of compound 7]
- IC50 (NLRP3): 5.72 nM
- IC50 [2]: 37500 nM

SMILES: Cc1cc(NC2CN(C)CC(F)(F)C2)nnc1-c1ccc2sccc2c1O (single isomer, unassigned) [Compound 70b]
- IC50 (NLRP3): 3.33 nM
- IC50 [2]: > 40000 nM

SMILES: Cc1cc(N[C@H]2COC[C@@H]2O)nnc1-c1ccc2sccc2c1O [Hydrochloride of compound 59]
- IC50 (NLRP3): 1.73 nM
- IC50 [2]: > 40000 nM

SMILES: Cc1cc(N[C@@H]2CCCN(CC(F)(F)F)C2)nnc1-c1ccc2sccc2c1O [Compound 48]
- IC50 (NLRP3): 2.87 nM
- IC50 at 2.5 min ([2]; human, CHO cells that express hERG (CHO-hERG)): ≥ 42600 nM

The next lines start with results.

- IC50 (NLRP3): 9.2 nM
- half-life ([1]; 1 mg/kg, dose IV/PO 1/2 mg/kg): 1.13 h
- clearance ([1]; 1 mg/kg, dose IV/PO 1/2 mg/kg): 9.56 mL/min/kg
- Vd ([1]; 1 mg/kg, dose IV/PO 1/2 mg/kg): 0.718 L/kg
- AUC(0-t) ([1]; dose IV/PO 1/2 mg/kg): 5.33 µM·h
- bioavailability ([1]; dose IV/PO 1/2 mg/kg): 62.4%
- Cmax ([1]; dose IV/PO 1/2 mg/kg): 3.22 µM
SMILES: Cc1cc(N[C@@H]2CCCN(C3COC3)C2)nnc1-c1ccc(C2CC2)cc1O [Compound 22]
- IC50 [2]: > 40000 nM

- IC50 (NLRP3): 0.74 nM
- half-life [3]: 1.12 h
- clearance [3]: 10.3 mL/min/kg
- Vd [3]: 0.796 L/kg
- AUC(0-t) [3]: 4.69 µM·h
- bioavailability [3]: 49.8%
- Cmax [3]: 1.52 µM
SMILES: Cc1cc(N[C@@H]2CCCN(CC#N)C2)nnc1-c1ccc2sccc2c1O [Compound 53]
- IC50 [2]: 17100 nM

- IC50 (NLRP3): 1.55 nM
SMILES: Cc1cc(N[C@@H]2CCCN(C3COC3)C2)nnc1-c1ccc2c(c1O)CCC2 [Compound 13]
- IC50 [2]: 21100 nM

- IC50 (NLRP3): 62.7 nM
SMILES: Cc1cc(N[C@@H]2CCCN(C3COC3)C2)nnc1-c1ccc(-c2ccc(F)cc2)cc1O [Compound 21]
- IC50 [2]: 10600 nM

- IC50 (NLRP3): 0.97 nM
SMILES: Cc1cc(N[C@@H]2CCCN(CC#N)C2)nnc1-c1ccc2c(c1O)CCC2 [Compound 12a]
- IC50 [2]: 31500 nM

- IC50 (NLRP3): 0.436 nM
- half-life ([1]; 2 mg/kg, dose IV/PO 2/10 mg/kg): 1.45 h
- clearance ([1]; 2 mg/kg, dose IV/PO 2/10 mg/kg): 12.8 mL/min/kg
- Vd ([1]; 2 mg/kg, dose IV/PO 2/10 mg/kg): 1.08 L/kg
- AUC(0-t) ([1]; dose IV/PO 2/10 mg/kg): 48.1 µM·h
- bioavailability ([1]; dose IV/PO 2/10 mg/kg): 147%
- Cmax ([1]; dose IV/PO 2/10 mg/kg): 22.2 µM
- half-life [3]: 1.08 h
- clearance [3]: 10 mL/min/kg
- Vd [3]: 0.402 L/kg
- AUC(0-t) [3]: 6.66 µM·h
- bioavailability [3]: 71.1%
- Cmax [3]: 2.61 µM
SMILES: Cc1cc(N[C@@H]2CCCC[C@H]2O)nnc1-c1ccc2sccc2c1O [Hydrochloride of compound 60]
- IC50 [2]: > 40000 nM
